Laboratory results from PubChem BioAssay AID330 (DTP/NCI, 2004).
Values joined by “and” are separate entries in the source; they are usually repeats but may differ in a detail not shown here. Identical values can stand only once. Inconclusive results and toxic doses are left out. Peptide text beside a SMILES is read from it. * marks the point of attachment. Trt = c1ccc(C(c2ccccc2)(c2ccccc2)*)cc1; Cbz = O=C(OCc1ccccc1)*

Test system: P388 leukemia ip, CD2F1 mice, survival T/C
Assay: NCI In Vivo Anticancer Drug Screen. Data for tumor model P388 Leukemia (intraperitoneal) in CD2F1 (CDF1) mice
Details: endpoint: median survival time, higher = longer survival
How it was run: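 Mice carrying the transplanted tumor received test compound or vehicle. Survival was recorded in each group, and the value is the treated-group measurement divided by that of the vehicle-treated control group.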

[1] = dose: 100.0 mg/kg/injection, schedule: Q01DX009 (ip), vehicle: saline
[2] = dose: 200.0 mg/kg/injection, schedule: Q01DX009 (ip), vehicle: saline
[3] = dose: 50.0 mg/kg/injection, schedule: Q01DX009 (ip), vehicle: Klucel (hydroxypropylcellulose) (HPC)
[4] = dose: 100.0 mg/kg/injection, schedule: Q01DX009 (ip), vehicle: Klucel (hydroxypropylcellulose) (HPC)
[5] = dose: 200.0 mg/kg/injection, schedule: Q01DX009 (ip), vehicle: Klucel (hydroxypropylcellulose) (HPC)
[6] = dose: 60.0 mg/kg/injection, schedule: Q01DX005 (ip), vehicle: saline with Tween-80
[7] = dose: 50.0 mg/kg/injection, schedule: Q01DX009 (ip), vehicle: saline
[8] = dose: 50.0 mg/kg/injection, schedule: Q01DX005 (ip), vehicle: saline with Tween-80
[9] = dose: 100.0 mg/kg/injection, schedule: Q01DX005 (ip), vehicle: saline with Tween-80
[10] = dose: 200.0 mg/kg/injection, schedule: Q01DX005 (ip), vehicle: saline with Tween-80
[11] = dose: 120.0 mg/kg/injection, schedule: Q01DX005 (ip), vehicle: saline with Tween-80
[12] = dose: 50.0 mg/kg/injection, schedule: Q01DX009 (ip), vehicle: saline with Tween-80

Nc1c[nH]ccc1=O was tested, and the T/C [1] was 102 % of control, the T/C [2] was 100 % of control and the T/C (dose: 400.0 mg/kg/injection, schedule: Q01DX009 (ip), vehicle: saline) was 99 % of control.

For O=C(O)c1ccccc1C(=O)c1ccccn1, the T/C [3] was 99 % of control, the T/C [4] was 97 % of control and the T/C [5] was 97 % of control.

For Cc1noc2c1N=C(c1ccccc1)CC(c1ccccc1)C2 (centres undefined), the T/C (dose: 25.0 mg/kg/injection, schedule: Q01DX009 (ip), vehicle: Klucel (hydroxypropylcellulose) (HPC)) was 104 % of control, the T/C [3] was 104 % of control and 111 % of control and the T/C [4] was 109 % of control. For the same compound, the T/C [5] was 109 % of control.

With COC(=O)C(CSC(c1ccccc1)(c1ccccc1)c1ccccc1)NC(=O)C(CC(N)=O)NC(=O)OCc1ccccc1 (stereo not drawn) (Cbz-Asn-Cys(Trt)-OMe; configuration not given here) the T/C (dose: 12.5 mg/kg/injection, schedule: Q01DX009 (ip), vehicle: distilled water + Tween-80) was 92 % of control, the T/C (dose: 25.0 mg/kg/injection, schedule: Q01DX009 (ip), vehicle: distilled water + Tween-80) was 97 % of control and the T/C (dose: 50.0 mg/kg/injection, schedule: Q01DX009 (ip), vehicle: distilled water + Tween-80) was 122 % of control and 94 % of control. The T/C (dose: 200.0 mg/kg/injection, schedule: Q01DX009 (ip), vehicle: distilled water + Tween-80) was 163 % of control.

For CCC(O)Cn1cnc2c(N)ncnc21 (centres undefined), the T/C (dose: 50.0 mg/kg/injection, schedule: Q01DX005 (ip), vehicle: Klucel (hydroxypropylcellulose) (HPC)) was 99 % of control, the T/C (dose: 100.0 mg/kg/injection, schedule: Q01DX005 (ip), vehicle: Klucel (hydroxypropylcellulose) (HPC)) was 99 % of control and the T/C (dose: 200.0 mg/kg/injection, schedule: Q01DX005 (ip), vehicle: Klucel (hydroxypropylcellulose) (HPC)) was 100 % of control.

With CC(=O)Nc1nc(C)c(CCCNS(=O)(=O)c2ccc([N+](=O)[O-])cc2)c(=O)[nH]1 the T/C (dose: 15.0 mg/kg/injection, schedule: Q01DX005 (ip), vehicle: saline with Tween-80) was 100 % of control, the T/C (dose: 30.0 mg/kg/injection, schedule: Q01DX005 (ip), vehicle: saline with Tween-80) was 101 % of control and the T/C [6] was 93 % of control and 95 % of control.

With C/C(=N\O)c1ccccn1 the T/C (dose: 25.0 mg/kg/injection, schedule: Q01DX009 (ip), vehicle: water) was 100 % of control, the T/C (dose: 50.0 mg/kg/injection, schedule: Q01DX009 (ip), vehicle: water) was 98 % of control and the T/C (dose: 100.0 mg/kg/injection, schedule: Q01DX009 (ip), vehicle: water) was 98 % of control. The T/C (dose: 200.0 mg/kg/injection, schedule: Q01DX009 (ip), vehicle: water) was 100 % of control and the T/C (dose: 400.0 mg/kg/injection, schedule: Q01DX009 (ip), vehicle: water) was 106 % of control.

CC1(O)CC23CC(O)C4(O)C(CC(O)C4(C)C)C(C)(O)C2CCC1C3O (centres undefined) was tested, and the T/C (dose: 0.25 mg/kg/injection, schedule: Q01DX009 (ip), vehicle: Klucel (hydroxypropylcellulose) (HPC)) was 97 % of control and the T/C (dose: 0.5 mg/kg/injection, schedule: Q01DX009 (ip), vehicle: Klucel (hydroxypropylcellulose) (HPC)) was 103 % of control.

In the case of Nc1nccc(C(=O)c2ccccc2O)n1, the T/C [7] is reported as 98 % of control, the T/C [1] is reported as 95 % of control and the T/C [2] is reported as 99 % of control.

In the case of CCC(=O)N(C)C(C)C(=O)OC1CC(=O)N(C)c2cc(cc(OC)c2Cl)CC(CO)=C/C=C/C(OC)C2(O)CC(OC(=O)N2)C(C)C2OC12C (centres undefined), the T/C (dose: 50.0 micrograms/kg/injection, schedule: Q01DX009 (ip), vehicle: saline + alcohol) is reported as 124 % of control, the T/C (dose: 100.0 micrograms/kg/injection, schedule: Q01DX009 (ip), vehicle: saline + alcohol) is reported as 158 % of control and the T/C (dose: 400.0 micrograms/kg/injection, schedule: Q01DX009 (ip), vehicle: saline + alcohol) is reported as 150 % of control and 158 % of control. For the same compound, the T/C (dose: 800.0 micrograms/kg/injection, schedule: Q01DX009 (ip), vehicle: saline + alcohol) was 155 % of control.

For O=S1(c2ccccc2)=NP(N2CC2)(N2CC2)=NP(N2CC2)(N2CC2)=N1 (centres undefined), the T/C (dose: 18.75 mg/kg/injection, schedule: Q04DX003 (ip), vehicle: saline) was 99 % of control, the T/C (dose: 37.5 mg/kg/injection, schedule: Q04DX003 (ip), vehicle: saline) was 93 % of control and the T/C (dose: 75.0 mg/kg/injection, schedule: Q04DX003 (ip), vehicle: saline) was 120 % of control.

With Cc1c(C)c(C)c(S(=O)(=O)N2CCN(S(=O)(=O)c3c(C)c(C)c(C)c(C)c3C)CC2)c(C)c1C the T/C [8] was 100 % of control, the T/C [9] was 97 % of control and the T/C [10] was 96 % of control.

With CC1(C)CO/C(=C/C(=O)c2ccccc2)N1C(=O)c1ccccc1 the T/C [6] was 99 % of control and the T/C [11] was 90 % of control.

With O=C(O)CC(=O)O.[NH-]C1CCCC([NH-])C1.[Pt+2] (centres undefined) the T/C (dose: 12.5 mg/kg/injection, schedule: Q04DX002 (ip), vehicle: saline with Tween-80) was 157 % of control and the T/C (dose: 25.0 mg/kg/injection, schedule: Q04DX002 (ip), vehicle: saline with Tween-80) was 180 % of control.

With N#C/C(=C\c1c(Cl)cccc1Cl)c1nc(-c2ccc(Cl)cc2)cs1 the T/C [7] was 92 % of control, the T/C [1] was 92 % of control and the T/C [2] was 105 % of control.

With Cc1cc(C)nc(NC(=O)Nc2cc(Cl)ccc2C)c1 the T/C (dose: 60.0 mg/kg/injection, schedule: Q01DX005 (ip), vehicle: Klucel (hydroxypropylcellulose) (HPC)) was 88 % of control, the T/C (dose: 120.0 mg/kg/injection, schedule: Q01DX005 (ip), vehicle: Klucel (hydroxypropylcellulose) (HPC)) was 86 % of control and the T/C (dose: 240.0 mg/kg/injection, schedule: Q01DX005 (ip), vehicle: Klucel (hydroxypropylcellulose) (HPC)) was 89 % of control.

In the case of CC(C)(C)c1ccnc(N=C2N=C(Nc3cc(C(C)(C)C)ccn3)c3ccccc32)c1, the T/C [12] is reported as 89 % of control and the T/C (dose: 100.0 mg/kg/injection, schedule: Q01DX009 (ip), vehicle: saline with Tween-80) is reported as 89 % of control.

COc1ccc2sc3c(C)ccc(NCC4CCCN5CCCCC45)c3c(=O)c2c1 (centres undefined) was tested, and the T/C [8] was 95 % of control, the T/C [9] was 90 % of control and the T/C [10] was 90 % of control.

CC(C)(O)C1C2OC(=O)C1C1(O)CC3OC34C(=O)OC2C14C (centres undefined) was tested, and the T/C (dose: 12.5 mg/kg/injection, schedule: Q01DX009 (ip), vehicle: saline with Tween-80) was 100 % of control, the T/C (dose: 25.0 mg/kg/injection, schedule: Q01DX009 (ip), vehicle: saline with Tween-80) was 100 % of control and the T/C (dose: 33.0 mg/kg/injection, schedule: Q04DX003 (ip), vehicle: saline with Tween-80) was 104 % of control. For the same compound, the T/C [12] was 100 % of control and the T/C (dose: 50.0 mg/kg/injection, schedule: Q04DX003 (ip), vehicle: saline with Tween-80) was 109 % of control.

For OC(c1ccccc1)(C1CCNCC1)C1CC1 (centres undefined), the T/C (dose: 12.5 mg/kg/injection, schedule: Q01DX001 (ip), vehicle: saline) was 105 % of control, the T/C (dose: 25.0 mg/kg/injection, schedule: Q01DX001 (ip), vehicle: saline) was 101 % of control and 97 % of control and the T/C (dose: 50.0 mg/kg/injection, schedule: Q01DX001 (ip), vehicle: saline) was 103 % of control and 106 % of control. The T/C (dose: 100.0 mg/kg/injection, schedule: Q01DX001 (ip), vehicle: Klucel (hydroxypropylcellulose) (HPC)) was 105 % of control and the T/C (dose: 100.0 mg/kg/injection, schedule: Q01DX001 (ip), vehicle: saline) was 102 % of control.

COc1cc(OC)c(OC)cc1/C=C/[N+](=O)[O-] was tested, and the T/C (dose: 100.0 mg/kg/injection, schedule: Q04DX003 (ip), vehicle: Klucel (hydroxypropylcellulose) (HPC)) was 102 % of control, the T/C (dose: 200.0 mg/kg/injection, schedule: Q04DX003 (ip), vehicle: Klucel (hydroxypropylcellulose) (HPC)) was 100 % of control and the T/C (dose: 400.0 mg/kg/injection, schedule: Q04DX003 (ip), vehicle: Klucel (hydroxypropylcellulose) (HPC)) was 111 % of control.

With O=C(CC1=NC2NN(c3ccccc3)C(=O)C2=C1CC(=O)c1cccc([N+](=O)[O-])c1)c1cccc([N+](=O)[O-])c1 (centres undefined) the T/C [6] was 95 % of control, the T/C [11] was 99 % of control and the T/C (dose: 240.0 mg/kg/injection, schedule: Q01DX005 (ip), vehicle: saline with Tween-80) was 86 % of control.

With COc1cc(OC)c2c(c1Cl)OCC2=O the T/C (dose: 50.0 mg/kg/injection, schedule: Q01DX009 (ip), vehicle: saline sonified) was 95 % of control, the T/C (dose: 100.0 mg/kg/injection, schedule: Q01DX009 (ip), vehicle: saline sonified) was 104 % of control and the T/C (dose: 200.0 mg/kg/injection, schedule: Q01DX009 (ip), vehicle: saline sonified) was 100 % of control.

In the case of CC(=O)c1c(O)cc2c(c1O)C1CC(C)(CCC1=C(C)C)O2 (centres undefined), the T/C (dose: 6.25 mg/kg/injection, schedule: Q01DX009 (ip), vehicle: saline) is reported as 105 % of control, the T/C (dose: 12.5 mg/kg/injection, schedule: Q01DX009 (ip), vehicle: saline) is reported as 105 % of control and the T/C (dose: 25.0 mg/kg/injection, schedule: Q01DX009 (ip), vehicle: saline) is reported as 107 % of control. The T/C [1] was 90 % of control and the T/C [2] was 89 % of control.
